Reference: patent publication US11433042B2, “Methods and compositions for treating metabolic disorders” (Joslin Diabetes Center, Inc., priority 2017, dated 2022)

Experiments:
Ephx2 = Ephx2 gene expression by qPCR after CL316,243 treatment; type: in vivo; details: mice, daily 1 mg/kg intraperitoneally for 10 days
Method: (§1) Total RNA was extracted from tissue with Trizol and purified using a spin column kit (Zymo Research). RNA (500 ng-1 μg) was reverse transcribed with a high-capacity complementary DNA (cDNA) reverse transcription kit (Applied Biosystems). Real-time PCR was performed in mouse tissues starting with 10 ng of cDNA and forward and reverse oligonucleotide primers (300 nM each) in a final volume of 10 μl with SYBR green PCR Master Mix (Roche). Fluorescence was determined and analyzed in an ABI Prism 7900 sequence detection system (Applied Biosystems). Acidic ribosomal phosphoprotein P0 (ARBP) expression was used to normalize gene expression.

Ephx1 = Ephx1 gene expression by qPCR after CL316,243 treatment; type: in vivo; details: mice, daily 1 mg/kg intraperitoneally for 10 days
Method: as §1

mature brown adipocytes = assay: In vitro fatty acid uptake (FFA-SS-Luc) in brown adipocytes constitutively expressing luciferase; type: cell-based, mice; details: data not shown
Method: Stromal vascular cells were isolated from interscapular brown adipose tissue dissected from TgLuc mice (Stock no. 008450) obtained from The Jackson Laboratory. Cells were immortalized and differentiated into adipocytes in vitro according to the WT-1 protocol (Tseng, Y. H. et al., Mol. Cell Biol. 24, 1918-1929 (2004)). After 1 hour of serum starvation, mature adipocytes were treated with 1 μM 12,13-diHOME or methyl acetate vehicle in 0.1% w/v BSA in PBS for 15 minutes. After this treatment, cells were incubated with 10 μm FFA-SS-Luc (Intrace Medical) and imaged using the IVIS Spectrum CT using sequential 30 s exposures for 1 hour. Data was analyzed using Living Image Software and movies were assembled from individual images using ImageJ. All cultures were confirmed to be Mycoplasma free.

[1] = Acute BAT activation, serum 12,13-diHOME by LC-MS/MS; type: in vivo; details: mice treated for 30 minutes
Method: All lipid standards were purchased from Cayman Chemical Company, Avanti Polar Lipids, or Santa Cruz Biotechnology, Inc. C18SPE cartridges were purchased from Biotage. All solvents are of HPLC or LC-MS/MS grade and were acquired from Sigma-Aldrich, Fisher Scientific, or VWR International. Tissue samples were homogenized in 0.1×PBS in Omni homogenizing tubes with ceramic beads at 4° C. Aliquots of 100 μL serum or 1 mg protein of homogenized tissue (measured by BCA) were taken, depending on the experiment. A mixture of deuterium-labeled internal standards was added to each aliquot, followed by 3× volume of sample of cold methanol (MeOH). Samples were vortexed for 5 min and stored at -20° C. overnight. Cold samples were centrifuged at 14,000 g for 10 min, and the supernatant was then transferred to a new tube and 3 mL of acidified H2O (pH 3.5) was added to each sample prior to C18 SPE and performed as previously described (Powell, W. S., Methods Mol Biol. 120, 11-24 (1999)). The methyl formate fractions were collected, dried under nitrogen, and reconstituted in 50 μL MeOH:H2O (1:1, by vol). […] The identity of a component was confirmed using PeakView® software (SCIEX), and quantification was performed using MultiQuantTM software (SCIEX). The quantification of 12,13-diHOME was performed against a standard calibration curve built with 5 points ranging from 0.01 pg/μL to 100 pg/μL. […]

Compound	Ephx2 expression in BAT (Ephx2)	Ephx1 expression in sWAT (Ephx1)	effect of NE treatment added to 12,13-diHOME on FFA-SS-Luc uptake in vitro (mature brown adipocytes)	12,13-diHOME production (serum concentration) [1]
C[C@H](Cc1ccc2c(c1)OC(C(=O)[O-])(C(=O)[O-])O2)NC[C@H](O)c1cccc(Cl)c1.[Na+].[Na+] [CL316,243]	increased	increased	–	–
NC[C@H](O)c1ccc(O)c(O)c1 [NE, Norepinephrine, reference compound]	–	–	no additive effect	induced
